This is an account of results in patent US5763404A, “Methods for using LHRH antagonists with low histamine release” (priority 1995, dated 1998).

Starred links: 1 amine or outer side, 2 acyl side, 3 side chain; linkers in the order of their positions; H or OH if unused. Non-standard residues stand in square brackets, D forms with d. Residues, ends and D or L forms follow the SMILES beside them. *: point of attachment. dAla(cis-4-NHCOPyz-cHex) = N[C@H](C[C@H]1CC[C@@H](NC(=O)c2cnccn2)CC1)C(=O)O; X9 = CN=C(NCCC[C@H](N[*:1])C(=O)[*:2])N(C)C; dPhe(4-Cl) = N[C@H](Cc1ccc(Cl)cc1)C(=O)O; d2Nal = N[C@H](Cc1ccc2ccccc2c1)C(=O)O; Lys(iPr) = CC(C)NCCCC[C@H](N)C(=O)O; Orn(iPr) = CC(C)NCCC[C@H](N)C(=O)O; 3Pal = N[C@@H](Cc1cccnc1)C(=O)O; d3Pal = N[C@H](Cc1cccnc1)C(=O)O; Nicotinoyl = O=C(c1cccnc1)*; Picolinoyl = O=C(c1ccccn1)*; Orn = NCCC[C@H](N)C(=O)O; Abu = CC[C@H](N)C(=O)O

The first data set deals with anaesthesized rats. Nature of the data set: wheal test, intradermal injection. The format is in vivo, rat. To be noted: 10 ug peptide intradermally. Put shortly:
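Anaesthetized rats given intradermal injection of 10 ug peptide in 100 ul saline; area of the wheal calculated from its diameter.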
As to `CC(=O)N[C@H](Cc1ccc2ccccc2c1)C(=O)N[C@H](Cc1ccc(Cl)cc1)C(=O)N[C@H](Cc1cccnc1)C(=O)N[C@@H](CO)C(=O)N[C@@H](CCCCNC(=O)c1cccnc1)C(=O)N[C@H](C[C@H]1CC[C@@H](NC(=O)c2cnccn2)CC1)C(=O)N[C@@H](CC(C)C)C(=O)N[C@@H](CCCCNC(C)C)C(=O)N1CCC[C@H]1C(=O)N[C@H](C)C(N)=O` [compound 25806] (Ac-[d2Nal][dPhe(4-Cl)][d3Pal]SK(Nicotinoyl)[dAla(cis-4-NHCOPyz-cHex)]L[Lys(iPr)]P[dA]-NH2), the “Wheal Area” value is reported as 101.7 ± 5.0 mm^2 /10 μg.
As to `CC[C@H](NC(=O)[C@@H](CCCCNC(=O)c1ccccn1)NC(=O)[C@H](CCCCNC(=O)c1ccccn1)NC(=O)[C@H](CO)NC(=O)[C@@H](Cc1cccnc1)NC(=O)[C@@H](Cc1ccc(Cl)cc1)NC(=O)[C@@H](Cc1ccc2ccccc2c1)NC(C)=O)C(=O)N[C@@H](CCCCNC(C)C)C(=O)N1CCC[C@H]1C(=O)N[C@H](C)C(N)=O` [compound 25990] (Ac-[d2Nal][dPhe(4-Cl)][d3Pal]SK(Picolinoyl)[dK](Picolinoyl)[Abu][Lys(iPr)]P[dA]-NH2), the “Wheal Area” value came out at 91.0 ± 5.4 mm^2 /10 μg.
Same read-out and setting: then `CC[C@H](NC(=O)[C@@H](CCCCNC(=O)c1ccccn1)NC(=O)[C@H](CCCCNC(=O)c1ccccn1)NC(=O)[C@H](CO)NC(=O)[C@@H](Cc1cccnc1)NC(=O)[C@@H](Cc1ccc(Cl)cc1)NC(=O)[C@@H](Cc1ccc2ccccc2c1)NC(C)=O)C(=O)N[C@@H](CCCNC(C)C)C(=O)N1CCC[C@H]1C(=O)N[C@H](C)C(N)=O` [compound 26179] (Ac-[d2Nal][dPhe(4-Cl)][d3Pal]SK(Picolinoyl)[dK](Picolinoyl)[Abu][Orn(iPr)]P[dA]-NH2), with 101.5 ± 9.3 mm^2 /10 μg.
On the same count and under the same terms, the figure for `CC(=O)N[C@H](Cc1ccc2ccccc2c1)C(=O)N[C@H](Cc1ccc(Cl)cc1)C(=O)N[C@H](Cc1c[nH]c2ccccc12)C(=O)N[C@@H](CO)C(=O)N[C@@H](CCCCNC(=O)c1ccccn1)C(=O)N[C@H](CCCCNC(=O)c1ccccn1)C(=O)N[C@@H](CC(C)C)C(=O)N[C@@H](CCCCNC(C)C)C(=O)N1CCC[C@H]1C(=O)N[C@H](C)C(N)=O` [compound 26177] (Ac-[d2Nal][dPhe(4-Cl)][dW]SK(Picolinoyl)[dK](Picolinoyl)L[Lys(iPr)]P[dA]-NH2) is 71.0 ± 4.3 mm^2 /10 μg.

Staying with this data set, now noted: Table I; 10 ug peptide intradermally.
Compound `CC(=O)N[C@H](Cc1ccc2ccccc2c1)C(=O)N[C@H](Cc1ccc(Cl)cc1)C(=O)N[C@H](Cc1cccnc1)C(=O)N[C@@H](CO)C(=O)N[C@@H](CCCNC(=O)c1cccnc1)C(=O)N[C@H](CCCCNC(=O)c1cccnc1)C(=O)N[C@@H](CC(C)C)C(=O)N[C@@H](CCCNC(C)C)C(=O)N1CCC[C@H]1C(=O)N[C@H](C)C(N)=O` [compound 25333] (Ac-[d2Nal][dPhe(4-Cl)][d3Pal]S[Orn](Nicotinoyl)[dK](Nicotinoyl)L[Orn(iPr)]P[dA]-NH2) registered a Wheal of 113.6 mm^2 /10.
As to `CC(=O)N[C@H](Cc1ccc2ccccc2c1)C(=O)N[C@H](Cc1ccc(Cl)cc1)C(=O)N[C@H](Cc1cccnc1)C(=O)N[C@@H](CO)C(=O)N[C@@H](Cc1c[nH]cn1)C(=O)N[C@H](CCCCNC(=O)c1cccnc1)C(=O)N[C@@H](CC(C)C)C(=O)N[C@@H](CCCNC(=N)N)C(=O)N1CCC[C@H]1C(=O)N[C@H](C)C(N)=O` [compound 24545] (Ac-[d2Nal][dPhe(4-Cl)][d3Pal]SH[dK](Nicotinoyl)LRP[dA]-NH2), the Wheal was 139.7 ± 0 mm^2 /10.
As to `CC(=O)N[C@H](Cc1ccc2ccccc2c1)C(=O)N[C@H](Cc1ccc(Cl)cc1)C(=O)N[C@H](Cc1cccnc1)C(=O)N[C@@H](CO)C(=O)N[C@@H](Cc1ccc(O)cc1)C(=O)N[C@H](CCCCNC(=O)c1cccnc1)C(=O)N[C@@H](CC(C)C)C(=O)N[C@@H](CCCCN)C(=O)N1CCC[C@H]1C(=O)N[C@H](C)C(N)=O` [compound 24825] (Ac-[d2Nal][dPhe(4-Cl)][d3Pal]SY[dK](Nicotinoyl)LKP[dA]-NH2), the Wheal was determined as 119.5 ± 3.2 mm^2 /10.
The compound `CN=C(NCCC[C@H](NC(=O)[C@H](CO)NC(=O)[C@@H](Cc1cccnc1)NC(=O)[C@@H](Cc1ccc(Cl)cc1)NC(=O)[C@@H](Cc1ccc2ccccc2c1)NC(C)=O)C(=O)N[C@H](CCCCNC(=O)c1cccnc1)C(=O)N[C@@H](CC(C)C)C(=O)N[C@@H](CCCCNC(C)C)C(=O)N1CCC[C@H]1C(=O)N[C@H](C)C(N)=O)N(C)C` [compound 24931] (Ac-[d2Nal][dPhe(4-Cl)][d3Pal]S[X9][dK](Nicotinoyl)L[Lys(iPr)]P[dA]-NH2) returned a Wheal of 140 ± 7.0 mm^2 /10.
On the same count and under the same terms, the figure for `CC(=O)N[C@H](Cc1ccc2ccccc2c1)C(=O)N[C@H](Cc1ccc(Cl)cc1)C(=O)N[C@H](Cc1cccnc1)C(=O)N[C@@H](CO)C(=O)N[C@@H](CCCCNC(=O)c1ccccn1)C(=O)N[C@H](CCCCNC(=O)c1ccccn1)C(=O)N[C@@H](CC(C)C)C(=O)N[C@@H](CCCCNC(C)C)C(=O)N1CCC[C@H]1C(=O)N[C@H](C)C(N)=O` [compound 25147] (Ac-[d2Nal][dPhe(4-Cl)][d3Pal]SK(Picolinoyl)[dK](Picolinoyl)L[Lys(iPr)]P[dA]-NH2) is 123.0 mm^2 /10; for `CC(=O)N[C@H](Cc1ccc2ccccc2c1)C(=O)N[C@H](Cc1ccc(Cl)cc1)C(=O)N[C@H](CCCCNC(=O)c1cccnc1)C(=O)N[C@@H](CO)C(=O)N[C@@H](Cc1ccc(O)cc1)C(=O)N[C@H](CCCCNC(=O)c1cccnc1)C(=O)N[C@@H](CC(C)C)C(=O)N[C@@H](CCCNC(=N)N)C(=O)N1CCC[C@H]1C(=O)N[C@H](C)C(N)=O` [compound 24597] (Ac-[d2Nal][dPhe(4-Cl)][dK](Nicotinoyl)SY[dK](Nicotinoyl)LRP[dA]-NH2) it is 101.0 mm^2 /10; for `CC(=O)N[C@H](Cc1ccc2ccccc2c1)C(=O)N[C@H](Cc1ccc(Cl)cc1)C(=O)N[C@H](Cc1cccnc1)C(=O)N[C@@H](CO)C(=O)N[C@@H](Cc1ccc(O)cc1)C(=O)N[C@H](CCCCNC(=O)c1cccnc1)C(=O)N[C@@H](CC(C)C)C(=O)N[C@@H](CCCCNC(=O)c1cccnc1)C(=O)N1CCC[C@H]1C(=O)N[C@H](C)C(N)=O` [compound 24540] (Ac-[d2Nal][dPhe(4-Cl)][d3Pal]SY[dK](Nicotinoyl)LK(Nicotinoyl)P[dA]-NH2) it is 82.6 ± 2.8 mm^2 /10.
`CC(=O)N[C@H](Cc1ccc2ccccc2c1)C(=O)N[C@H](Cc1ccc(Cl)cc1)C(=O)N[C@H](Cc1cccnc1)C(=O)N[C@@H](CO)C(=O)N[C@@H](Cc1cccnc1)C(=O)N[C@H](CCCCNC(=O)c1cccnc1)C(=O)N[C@@H](CC(C)C)C(=O)N[C@@H](CCCNC(=N)N)C(=O)N1CCC[C@H]1C(=O)N[C@H](C)C(N)=O` [compound 24593] (Ac-[d2Nal][dPhe(4-Cl)][d3Pal]S[3Pal][dK](Nicotinoyl)LRP[dA]-NH2) yielded a Wheal of 146.4 ± 3.6 mm^2 /10.
As to `CC(=O)N[C@H](Cc1ccc(Cl)cc1)C(=O)N[C@H](Cc1ccc(Cl)cc1)C(=O)N[C@H](Cc1cccnc1)C(=O)N[C@@H](CO)C(=O)N[C@@H](Cc1ccc(O)cc1)C(=O)N[C@H](CCCCNC(=O)c1cccnc1)C(=O)N[C@@H](CC(C)C)C(=O)N[C@@H](CCCCNC(C)C)C(=O)N1CCC[C@H]1C(=O)N[C@H](C)C(N)=O` [compound 25337] (Ac-[dPhe(4-Cl)][dPhe(4-Cl)][d3Pal]SY[dK](Nicotinoyl)L[Lys(iPr)]P[dA]-NH2), the Wheal turned out to be 139.9 mm^2 /10.
